Literature values, collected in patent US12616707B2, “Compositions and methods for improving gut health” (Plexus Worldwide, LLC., priority 2017, dated 2026).

Assays:
[1] = test system: DSS-induced colitis model; settings: chlorogenic acid supplementation
[2] = test system: high-fat fed mice
[3] = 0.02% (wt/wt) in high-fat diet vs high-fat control group

## O=C(/C=C/c1ccc(O)c(O)c1)O[C@@H]1C[C@](O)(C(=O)O)C[C@@H](O)[C@H]1O [chlorogenic acid]
[1]
  IL-1β expression: significant suppression
[2]; [3]
  Body weight: significantly lowered
  Plasma insulin levels: significantly lowered
  Plasma leptin levels: significantly lowered
  Visceral fat mass: significantly lowered
[2]; high-fat diet
  Cholesterol concentrations (plasma, adipose tissue and heart): lowered
  Triglyceride concentrations (plasma, liver and heart): lowered
